Values quoted from earlier work as cited in patent US20080287471A1, “4'-Substituted Carbovir And Abacavir-Derivatives As Well As Related Compounds With Hiv And Hcv Antiviral Activity” (priority 2003, published 2008).

Test system: HIV
Settings: after a short course of abacavir monotherapy

Nc1nc(NC2CC2)c2ncn([C@H]3C=C[C@@H](CO)C3)c2n1 [abacavir, Abacavir]
average reduction in viral load: more than 1.4 log 10 RNA copies/ml
